# Test results from patent US6753459B2, “Transgenic plants and methods for production thereof” (National Research Council of Canada, priority 1998, dated 2004).
# Experiments:
# [1] = system: Brassica napus hypocotyl explants (AG019, altered oil profiles); assay: Brassica napus transformation, NAA in callusing and recovery media; format: cell-based; settings: NAA added to callusing and recovery media; Brassica napus with altered oil profiles
# Description: After co-cultivation, the cells are […] to callusing and recovery media for 7 days. Explants are then placed on selection medium containing macro and micro nutrients, vitamins and growth regulators which induce shoot formation. The selection medium also contains a bacteriocide, for example carbenicillin. Preferably, it also contains a selection agent. The cells are grown on the selection medium until shoots (putative transformants) develop. […] To enhance regeneration, any shoots which develop are transferred on a regular basis to fresh selection media. Plantlets are placed on a shoot elongation media and finally a rooting media.
# A single colony of Agrobacterium containing the plant transformation vector construct is transferred to AB minimal medium (Watson et al., 1975) for 48 hr at 28° C., which gives at approx. density of 6×10^8 cfu/mL. Hypocotyls are harvested from the germinated seeds and transferred to the Pre-Culture medium (MMOM, 3% (w/v) sucrose, 5.0 mg/L BAP, 0.7% (w/v) agar, and NAA 0.1 mg/L, pH 5.8) and incubated for 3 days under the TC conditions described above. Hypocotyl explants are then transferred from the Pre-Culture medium to the AB minimal medium containing the Agrobacterium strain of interest and incubated for at least 2 min. […]
# Non-transformed plants [2] = assay: NAM spray of non-transformed tobacco plants; format: in vivo; settings: 200 ug/mL NAM with 0.1% Tween 20, sprayed to runoff
# From the text: Transformed tobacco plants containing the pJH 121 construct described above are recovered and tested using standard analysis to determine the presence of the inserted vector. […] Plants were sprayed to runoff using a pressurized sprayer. […] Non-transformed plants are unaffected by the treatment.
# non-transgenic varieties = assay: NAM spray of non-transgenic Brassica napus varieties; format: in vivo; settings: 200 ug/mL NAM with 0.1% Tween 20, sprayed to runoff; 25 days after spraying
# From the text: (§1) Transformed Brassica napus plants containing the construct pJH 121 described above are recovered and tested using standard analysis to determine the presence of the inserted vector. […] Plants were sprayed to runoff using a pressurized sprayer.
# [3] = system: transgenic plants expressing the oncogene 2; assay: Spray screen for transgenic plants expressing the oncogene 2; format: in vivo
# From the text: A simple procedure is provided to screen for transgenic plants expressing the oncogene 2. […] Plants which have been affected are selected.
# [4] = system: Transgenic seedlings from JH2973 and JH2984 (pJH 125); assay: In vitro seed germination in the presence of NAM and NPA, transgenic seedlings; format: in vivo, Brassica napus
# From the text: (§2) Oncogene 2 can be used as a selectable marker in seed germination and embryo rescue in vitro assays, allowing for an even earlier determination of the presence of the transformation vector in segregating populations. […] The in vitro assay reduces the time and physical space (e.g. number of plants in growth chambers or under cultivation) required to identify homozygous transgenic lines, and the embryo rescue method allows selection and recovery of transformed seedlings which reduces generation to generation cycle time a breeding program.
# (§3) Non-transformed segregants grew normally. […] The presence of the transformation vector in these plants was confirmed as above.
# [5] = system: Transformed Brassica napus plants containing the construct pJH 121; assay: NAM spray of transformed Brassica napus plants containing pJH121; format: in vivo; settings: 200 ug/mL NAM with 0.1% Tween 20, sprayed to runoff at three-four leaf stage; 25 days after spraying
# From the text: as §1
# [6] = system: plants from JH 2984 and JH 2973 transformation events (pJH 125); assay: NAM as scorable marker agent in segregating populations JH 2984 and JH 2973; format: in vivo, Brassica napus; settings: NAM 1 mg/mL at the 2-3 leaf stage; 24 hours after application
# From the text: In this example, 20 plants from JH 2984 and JH 2973 transformation events were planted. These transgenic varieties were segregating 3:1 for the inserted plant transformation vector pJH 125. […] These plants were subjected to PCR analysis for the presence of the transformation vector.
# Non-transformed plants [7] = assay: NAM spray of non-transformed Brassica napus plants; format: in vivo; settings: 200 ug/mL NAM with 0.1% Tween 20, sprayed to runoff
# From the text: (§4) Transformed Brassica napus plants containing the construct pJH 125 (35S oncogene 2) described above are recovered and tested using standard analysis to determine the presence of the inserted vector. […] Plants were sprayed to runoff using a pressurized sprayer. […] Non-transformed plants are unaffected by the treatment.
# [8] = system: Non-transformed segregants; assay: In vitro seed germination in the presence of NAM and NPA, non-transformed segregants; format: in vivo, Brassica napus; settings: germinated in vitro in the presence of NAM and the auxin transport inhibitor NPA
# From the text: as §2, §3
# [9] = system: Transformed Brassica napus plants containing the construct pJH 125 (35S oncogene 2); assay: NAM spray of transformed Brassica napus plants containing pJH125; format: in vivo; settings: 200 ug/mL NAM with 0.1% Tween 20, sprayed to runoff
# From the text: as §4
# [10] = system: Plants without the oncogene 2; assay: Spray screen, plants without the oncogene 2; format: in vivo; settings: sprayed with formulated mixture
# Description: A simple procedure is provided to screen for transgenic plants expressing the oncogene 2. Plant populations are sprayed with the formulated mixture of napthalene acetamide. […] Plants without the oncogene 2 are unaffected. Plants which have been affected are selected. These recover within 72 hours and continue to grow and set seed. This phenotypic response is transmitted to subsequent generations.
SMILES,formation of transgenic shoots [1],effect of treatment on non-transformed plants (Non-transformed plants [2]),growth of non-transgenic varieties (non-transgenic varieties),"visual phenotype of transgenic plants ([3]; sprayed with formulated mixture, within 24 hours)","time to recovery of affected plants ([3]; sub-lethal spray, plants continue to grow and set seed)",recovery of putative transgenic seedlings ([4]; after transfer to non-selective media),phenotype of transgenic seedlings ([4]; germinated in vitro in the presence of NAM and the auxin transport inhibitor NPA),growth of transgenic plants [5],visual phenotype of putative transgenics (confirmed by PCR) [6],effect of treatment on non-transformed plants (Non-transformed plants [7]),growth of non-transformed segregants [8],visual phenotype of transformed plants ([9]; 2 days after spraying),visual phenotype of transformed plants ([9]; within 5 days),effect on plants without the oncogene 2 [10]
"O=C(O)Cc1cccc2ccccc12 [NAA, napthalene acetic acid]",greatly increases the formation of transgenic shoots,,,,,,,,,,,,,
"NC(=O)Cc1cccc2ccccc12 [NAM, napthalene acetamide]",,unaffected,grew normally and flowered,epinasty and obvious visual phenotypic changes,≤ 72 h,recovered and grew normally,"stunted seedlings, small cotyledons, stunted and swollen roots and callus at the root/shoot junction",remained stunted in growth,twisted leaves,unaffected,grew normally,leaves are drooping and the leaf margins curling,leaves are twisted and the plant shows typical auxin toxicity,unaffected
